Drawing on paper PMC5933747 (PLoS ONE, 2018), this text covers IC50 for nine molecules.

What all share (type): cell-based
Test [1] deals with human NaV1.7 (Homo sapiens, UniProt Q15858). Description: IonWorks Quattro (IWQ) electrophysiology, human NaV1.7. Background: Patch clamp records ionic current or voltage across a cell membrane.
Test [2] has as its target human NaV1.4 (Homo sapiens, UniProt P35499). Description: IonWorks Quattro (IWQ) electrophysiology, human NaV1.4.
For test [3], the target named is human NaV1.5 (Homo sapiens, UniProt Q14524). Description: IonWorks Quattro (IWQ) electrophysiology, human NaV1.5.
Setting [4] is: read-out: Glu mutant IWQ IC50 NaV1.7.
Setting [5] is: read-out: Glu mutant IWQ IC50 NaV1.4.
The mark [6] stands for this setting: read-out: Glu mutant IWQ IC50 NaV1.5.
Where [7] appears, read: read-out: Ala mutant IWQ IC50 NaV1.7.
Setting [8] is: read-out: Ala mutant IWQ IC50 NaV1.4.
The mark [9] stands for this setting: read-out: Ala mutant IWQ IC50 NaV1.5.

The structures appear in SMILES notation. Where two headings read alike, the source gives them in different places.

Sequence of human NaV1.7 (Q15858 whole entry): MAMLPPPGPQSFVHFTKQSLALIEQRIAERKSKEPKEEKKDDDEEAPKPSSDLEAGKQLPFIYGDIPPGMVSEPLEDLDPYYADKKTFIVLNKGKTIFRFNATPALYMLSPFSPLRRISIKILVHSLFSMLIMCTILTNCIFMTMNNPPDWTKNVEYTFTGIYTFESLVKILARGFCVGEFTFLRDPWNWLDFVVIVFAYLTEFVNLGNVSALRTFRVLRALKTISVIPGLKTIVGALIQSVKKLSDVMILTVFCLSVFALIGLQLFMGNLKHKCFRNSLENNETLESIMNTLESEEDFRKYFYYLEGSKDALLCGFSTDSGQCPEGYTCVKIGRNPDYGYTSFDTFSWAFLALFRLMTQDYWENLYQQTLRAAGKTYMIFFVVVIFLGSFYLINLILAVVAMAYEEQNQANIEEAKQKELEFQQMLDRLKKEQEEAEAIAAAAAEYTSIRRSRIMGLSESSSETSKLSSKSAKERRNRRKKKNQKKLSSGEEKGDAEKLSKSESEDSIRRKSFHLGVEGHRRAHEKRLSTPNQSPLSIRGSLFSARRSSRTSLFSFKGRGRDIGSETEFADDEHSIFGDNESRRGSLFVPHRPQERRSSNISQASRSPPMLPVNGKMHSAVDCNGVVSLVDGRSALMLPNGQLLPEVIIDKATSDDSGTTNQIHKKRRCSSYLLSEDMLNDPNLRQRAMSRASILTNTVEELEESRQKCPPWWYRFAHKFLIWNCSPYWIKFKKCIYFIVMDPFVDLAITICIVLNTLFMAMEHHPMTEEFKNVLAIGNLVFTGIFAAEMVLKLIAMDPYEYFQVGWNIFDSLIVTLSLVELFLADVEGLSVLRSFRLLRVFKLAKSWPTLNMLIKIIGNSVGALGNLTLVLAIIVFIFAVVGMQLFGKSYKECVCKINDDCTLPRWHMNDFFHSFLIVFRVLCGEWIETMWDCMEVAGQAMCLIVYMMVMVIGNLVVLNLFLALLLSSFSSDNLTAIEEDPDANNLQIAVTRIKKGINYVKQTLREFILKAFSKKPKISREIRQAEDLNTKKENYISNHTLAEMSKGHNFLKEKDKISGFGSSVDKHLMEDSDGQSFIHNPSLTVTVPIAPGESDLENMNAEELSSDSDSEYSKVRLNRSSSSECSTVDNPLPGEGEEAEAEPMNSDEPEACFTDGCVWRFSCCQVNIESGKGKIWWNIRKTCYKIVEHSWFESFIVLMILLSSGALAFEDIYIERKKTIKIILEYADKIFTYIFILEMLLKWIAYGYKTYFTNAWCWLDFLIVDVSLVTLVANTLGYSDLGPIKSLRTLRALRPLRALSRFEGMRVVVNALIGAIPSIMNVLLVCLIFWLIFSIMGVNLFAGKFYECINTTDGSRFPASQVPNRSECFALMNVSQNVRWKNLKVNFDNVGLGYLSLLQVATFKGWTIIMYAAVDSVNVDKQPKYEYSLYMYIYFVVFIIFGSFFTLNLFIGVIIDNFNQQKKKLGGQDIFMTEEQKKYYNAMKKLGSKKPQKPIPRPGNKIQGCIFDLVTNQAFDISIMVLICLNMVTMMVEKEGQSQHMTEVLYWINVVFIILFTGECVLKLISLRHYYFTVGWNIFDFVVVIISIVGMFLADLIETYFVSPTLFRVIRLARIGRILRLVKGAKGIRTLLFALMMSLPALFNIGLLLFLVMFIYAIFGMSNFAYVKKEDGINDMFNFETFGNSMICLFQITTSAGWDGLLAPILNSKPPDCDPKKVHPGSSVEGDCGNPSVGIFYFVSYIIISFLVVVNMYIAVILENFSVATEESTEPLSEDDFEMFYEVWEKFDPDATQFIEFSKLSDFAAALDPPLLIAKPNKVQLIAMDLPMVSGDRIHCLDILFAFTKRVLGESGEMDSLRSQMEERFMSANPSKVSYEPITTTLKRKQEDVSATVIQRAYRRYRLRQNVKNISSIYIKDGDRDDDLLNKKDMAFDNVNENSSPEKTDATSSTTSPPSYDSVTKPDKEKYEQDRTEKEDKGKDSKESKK
Sequence of human NaV1.5 (Q14524 whole entry): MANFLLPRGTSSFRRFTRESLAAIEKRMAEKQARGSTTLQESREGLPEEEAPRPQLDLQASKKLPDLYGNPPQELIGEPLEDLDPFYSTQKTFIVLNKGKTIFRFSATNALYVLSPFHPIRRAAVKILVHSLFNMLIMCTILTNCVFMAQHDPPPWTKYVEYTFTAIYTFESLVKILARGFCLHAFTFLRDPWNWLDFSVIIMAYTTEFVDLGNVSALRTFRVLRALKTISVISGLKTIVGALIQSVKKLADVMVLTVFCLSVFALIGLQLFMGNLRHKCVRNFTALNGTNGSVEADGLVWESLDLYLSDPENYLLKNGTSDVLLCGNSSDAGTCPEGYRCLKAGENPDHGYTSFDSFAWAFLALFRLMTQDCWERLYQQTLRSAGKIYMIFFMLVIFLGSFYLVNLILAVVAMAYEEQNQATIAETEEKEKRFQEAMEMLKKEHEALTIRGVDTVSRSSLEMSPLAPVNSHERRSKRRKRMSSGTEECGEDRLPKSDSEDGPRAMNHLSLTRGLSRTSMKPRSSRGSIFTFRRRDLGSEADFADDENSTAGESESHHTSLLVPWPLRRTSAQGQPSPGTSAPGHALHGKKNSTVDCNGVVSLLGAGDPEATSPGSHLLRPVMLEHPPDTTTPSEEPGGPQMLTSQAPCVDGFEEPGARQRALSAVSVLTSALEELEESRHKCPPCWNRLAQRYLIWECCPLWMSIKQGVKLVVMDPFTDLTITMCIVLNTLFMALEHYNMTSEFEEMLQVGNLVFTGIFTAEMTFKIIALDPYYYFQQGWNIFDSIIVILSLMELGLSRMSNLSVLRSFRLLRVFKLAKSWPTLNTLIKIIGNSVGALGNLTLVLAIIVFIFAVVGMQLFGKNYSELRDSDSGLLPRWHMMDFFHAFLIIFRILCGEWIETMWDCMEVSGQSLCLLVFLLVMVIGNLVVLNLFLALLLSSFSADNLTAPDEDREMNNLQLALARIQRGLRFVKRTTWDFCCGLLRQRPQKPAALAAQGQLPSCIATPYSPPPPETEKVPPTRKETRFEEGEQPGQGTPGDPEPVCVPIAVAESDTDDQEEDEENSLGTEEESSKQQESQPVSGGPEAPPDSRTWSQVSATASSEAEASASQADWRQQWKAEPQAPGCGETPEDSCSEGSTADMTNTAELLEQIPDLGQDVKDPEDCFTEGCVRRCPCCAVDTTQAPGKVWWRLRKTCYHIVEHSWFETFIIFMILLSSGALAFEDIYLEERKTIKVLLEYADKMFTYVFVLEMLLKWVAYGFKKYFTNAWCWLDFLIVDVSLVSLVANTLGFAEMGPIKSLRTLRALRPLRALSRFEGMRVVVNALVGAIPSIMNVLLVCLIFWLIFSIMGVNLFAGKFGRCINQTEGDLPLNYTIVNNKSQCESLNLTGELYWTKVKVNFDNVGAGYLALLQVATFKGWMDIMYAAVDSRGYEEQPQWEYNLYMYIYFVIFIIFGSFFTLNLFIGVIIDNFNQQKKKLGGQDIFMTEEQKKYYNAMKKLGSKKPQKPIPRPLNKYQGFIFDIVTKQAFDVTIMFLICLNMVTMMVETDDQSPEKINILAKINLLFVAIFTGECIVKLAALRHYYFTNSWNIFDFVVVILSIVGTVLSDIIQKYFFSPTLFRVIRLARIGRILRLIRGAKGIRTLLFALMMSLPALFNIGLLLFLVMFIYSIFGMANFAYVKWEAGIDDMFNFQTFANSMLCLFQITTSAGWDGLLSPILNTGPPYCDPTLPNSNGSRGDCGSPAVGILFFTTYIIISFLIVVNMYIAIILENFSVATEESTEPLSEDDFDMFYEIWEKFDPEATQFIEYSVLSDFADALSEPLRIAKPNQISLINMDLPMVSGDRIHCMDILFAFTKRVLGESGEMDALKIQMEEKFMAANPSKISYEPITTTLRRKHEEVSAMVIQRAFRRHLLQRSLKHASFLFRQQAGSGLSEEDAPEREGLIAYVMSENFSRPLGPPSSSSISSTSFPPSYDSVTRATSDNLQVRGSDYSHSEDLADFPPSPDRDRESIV

For orientation: IC50 means the concentration needed to halve the response being measured. On to `CC[C@H](C)[C@H](NC(=O)[C@@H](NC(=O)[C@H](CCCCN)NC(=O)[C@H](CCCNC(=N)N)NC(=O)[C@@H]1CSSC[C@@H]2NC(=O)[C@H](C)NC(=O)[C@H](CCCNC(=N)N)NC(=O)[C@H](CCCCN)NC(=O)[C@H](CO)NC(=O)[C@H](CC(=O)O)NC(=O)[C@@H]3CSSC[C@H](NC(=O)[C@H](CCCNC(=N)N)NC(=O)[C@H](CC(C)C)NC(=O)CNC(=O)[C@H](CCC(=O)O)NC(=O)[C@H](CSSC[C@H](NC(=O)[C@@H](N)Cc4ccc(O)cc4)C(=O)N[C@@H](CCC(N)=O)C(=O)N[C@@H](CCC(=O)O)C(=O)N[C@@H](Cc4c[nH]c5ccccc45)C(=O)N[C@@H](CCSC)C(=O)N[C@@H](Cc4c[nH]c5ccccc45)C(=O)N[C@@H]([C@@H](C)O)C(=O)N3)NC2=O)C(=O)N[C@@H](CCCCN)C(=O)N[C@@H](CC(C)C)C(=O)N[C@@H](Cc2c[nH]c3ccccc23)C(=O)N1)[C@@H](C)CC)C(N)=O` [K4 Glu mutant], for which the values for the IC50 in test [1] (setting [4]), in test [2] (setting [5]) and in test [3] (setting [6]) were 106 nM, 967 nM and > 10000 nM, respectively.
On the same counts, the results for `CC[C@H](C)[C@H](NC(=O)[C@@H](NC(=O)[C@H](CCCCN)NC(=O)[C@H](CCCNC(=N)N)NC(=O)[C@@H]1CSSC[C@@H]2NC(=O)[C@H](C)NC(=O)[C@H](CCCNC(=N)N)NC(=O)[C@H](CCC(=O)O)NC(=O)[C@H](CO)NC(=O)[C@H](CC(=O)O)NC(=O)[C@@H]3CSSC[C@H](NC(=O)[C@H](CCCNC(=N)N)NC(=O)[C@H](CC(C)C)NC(=O)CNC(=O)[C@H](CCC(=O)O)NC(=O)[C@H](CSSC[C@H](NC(=O)[C@@H](N)Cc4ccc(O)cc4)C(=O)N[C@@H](CCC(N)=O)C(=O)N[C@@H](CCCCN)C(=O)N[C@@H](Cc4c[nH]c5ccccc45)C(=O)N[C@@H](CCSC)C(=O)N[C@@H](Cc4c[nH]c5ccccc45)C(=O)N[C@@H]([C@@H](C)O)C(=O)N3)NC2=O)C(=O)N[C@@H](CCCCN)C(=O)N[C@@H](CC(C)C)C(=O)N[C@@H](Cc2c[nH]c3ccccc23)C(=O)N1)[C@@H](C)CC)C(N)=O` [K12 Glu mutant] are 755 nM, > 10000 nM and > 10000 nM.
As for `CC[C@H](C)[C@H](NC(=O)[C@@H](NC(=O)[C@H](CCCCN)NC(=O)[C@H](CCCNC(=N)N)NC(=O)[C@@H]1CSSC[C@@H]2NC(=O)[C@H](C)NC(=O)[C@H](CCCNC(=N)N)NC(=O)[C@H](CCCCN)NC(=O)[C@H](CO)NC(=O)[C@H](CC(=O)O)NC(=O)[C@@H]3CSSC[C@H](NC(=O)[C@H](CCCNC(=N)N)NC(=O)[C@H](CC(C)C)NC(=O)CNC(=O)[C@H](CCC(=O)O)NC(=O)[C@H](CSSC[C@H](NC(=O)[C@@H](N)Cc4ccc(O)cc4)C(=O)N[C@@H](CCC(N)=O)C(=O)N[C@@H](CCCCN)C(=O)N[C@@H](Cc4c[nH]c5ccccc45)C(=O)N[C@@H](CCSC)C(=O)N[C@@H](Cc4c[nH]c5ccccc45)C(=O)N[C@@H]([C@@H](C)O)C(=O)N3)NC2=O)C(=O)N[C@@H](CCC(=O)O)C(=O)N[C@@H](CC(C)C)C(=O)N[C@@H](Cc2c[nH]c3ccccc23)C(=O)N1)[C@@H](C)CC)C(N)=O` [K22 Glu mutant], the figures for the IC50 in test [1] (setting [4]), in test [2] (setting [5]) and in test [3] (setting [6]) were 662 nM, > 10000 nM and > 10000 nM, respectively.
For `CC[C@H](C)[C@H](NC(=O)[C@@H](NC(=O)[C@H](C)NC(=O)[C@H](CCCNC(=N)N)NC(=O)[C@@H]1CSSC[C@@H]2NC(=O)[C@H](C)NC(=O)[C@H](CCCNC(=N)N)NC(=O)[C@H](CCCCN)NC(=O)[C@H](CO)NC(=O)[C@H](CC(=O)O)NC(=O)[C@@H]3CSSC[C@H](NC(=O)[C@H](CCCNC(=N)N)NC(=O)[C@H](CC(C)C)NC(=O)CNC(=O)[C@H](CCC(=O)O)NC(=O)[C@H](CSSC[C@H](NC(=O)[C@@H](N)Cc4ccc(O)cc4)C(=O)N[C@@H](CCC(N)=O)C(=O)N[C@@H](CCCCN)C(=O)N[C@@H](Cc4c[nH]c5ccccc45)C(=O)N[C@@H](CCSC)C(=O)N[C@@H](Cc4c[nH]c5ccccc45)C(=O)N[C@@H]([C@@H](C)O)C(=O)N3)NC2=O)C(=O)N[C@@H](CCCCN)C(=O)N[C@@H](CC(C)C)C(=O)N[C@@H](Cc2c[nH]c3ccccc23)C(=O)N1)[C@@H](C)CC)C(N)=O` [K27 Ala mutant], the figures for the IC50 in test [1] (setting [7]), in test [2] (setting [8]) and in test [3] (setting [9]) were 374 nM, 2320 nM and > 10000 nM, respectively.
Regarding `CC[C@H](C)[C@H](NC(=O)[C@@H](NC(=O)[C@H](CCC(=O)O)NC(=O)[C@H](CCCNC(=N)N)NC(=O)[C@@H]1CSSC[C@@H]2NC(=O)[C@H](C)NC(=O)[C@H](CCCNC(=N)N)NC(=O)[C@H](CCCCN)NC(=O)[C@H](CO)NC(=O)[C@H](CC(=O)O)NC(=O)[C@@H]3CSSC[C@H](NC(=O)[C@H](CCCNC(=N)N)NC(=O)[C@H](CC(C)C)NC(=O)CNC(=O)[C@H](CCC(=O)O)NC(=O)[C@H](CSSC[C@H](NC(=O)[C@@H](N)Cc4ccc(O)cc4)C(=O)N[C@@H](CCC(N)=O)C(=O)N[C@@H](CCCCN)C(=O)N[C@@H](Cc4c[nH]c5ccccc45)C(=O)N[C@@H](CCSC)C(=O)N[C@@H](Cc4c[nH]c5ccccc45)C(=O)N[C@@H]([C@@H](C)O)C(=O)N3)NC2=O)C(=O)N[C@@H](CCCCN)C(=O)N[C@@H](CC(C)C)C(=O)N[C@@H](Cc2c[nH]c3ccccc23)C(=O)N1)[C@@H](C)CC)C(N)=O` [K27 Glu mutant], the IC50 is 748 nM in test [1] (setting [4]), > 10000 nM in test [2] (setting [5]) and > 10000 nM in test [3] (setting [6]).
For `CC[C@H](C)[C@H](NC(=O)[C@@H](NC(=O)[C@H](CCCCN)NC(=O)[C@H](CCCNC(=N)N)NC(=O)[C@@H]1CSSC[C@@H]2NC(=O)[C@H](C)NC(=O)[C@H](CCCNC(=N)N)NC(=O)[C@H](CCCCN)NC(=O)[C@H](CO)NC(=O)[C@H](CC(=O)O)NC(=O)[C@@H]3CSSC[C@H](NC(=O)[C@H](CCCNC(=N)N)NC(=O)[C@H](C)NC(=O)CNC(=O)[C@H](CCC(=O)O)NC(=O)[C@H](CSSC[C@H](NC(=O)[C@@H](N)Cc4ccc(O)cc4)C(=O)N[C@@H](CCC(N)=O)C(=O)N[C@@H](CCCCN)C(=O)N[C@@H](Cc4c[nH]c5ccccc45)C(=O)N[C@@H](CCSC)C(=O)N[C@@H](Cc4c[nH]c5ccccc45)C(=O)N[C@@H]([C@@H](C)O)C(=O)N3)NC2=O)C(=O)N[C@@H](CCCCN)C(=O)N[C@@H](CC(C)C)C(=O)N[C@@H](Cc2c[nH]c3ccccc23)C(=O)N1)[C@@H](C)CC)C(N)=O` [L19 Ala mutant], the figures for the IC50 in test [1] (setting [7]), in test [2] (setting [8]) and in test [3] (setting [9]) were 2810 nM, > 10000 nM and > 10000 nM, respectively.
Turning to `CC[C@H](C)[C@H](NC(=O)[C@@H](NC(=O)[C@H](CCCCN)NC(=O)[C@H](CCCNC(=N)N)NC(=O)[C@@H]1CSSC[C@@H]2NC(=O)[C@H](C)NC(=O)[C@H](CCCNC(=N)N)NC(=O)[C@H](CCCCN)NC(=O)[C@H](CO)NC(=O)[C@H](CC(=O)O)NC(=O)[C@@H]3CSSC[C@H](NC(=O)[C@H](CCCNC(=N)N)NC(=O)[C@H](CCC(=O)O)NC(=O)CNC(=O)[C@H](CCC(=O)O)NC(=O)[C@H](CSSC[C@H](NC(=O)[C@@H](N)Cc4ccc(O)cc4)C(=O)N[C@@H](CCC(N)=O)C(=O)N[C@@H](CCCCN)C(=O)N[C@@H](Cc4c[nH]c5ccccc45)C(=O)N[C@@H](CCSC)C(=O)N[C@@H](Cc4c[nH]c5ccccc45)C(=O)N[C@@H]([C@@H](C)O)C(=O)N3)NC2=O)C(=O)N[C@@H](CCCCN)C(=O)N[C@@H](CC(C)C)C(=O)N[C@@H](Cc2c[nH]c3ccccc23)C(=O)N1)[C@@H](C)CC)C(N)=O` [L19 Glu mutant], the IC50 in test [1] (setting [4]), in test [2] (setting [5]) and in test [3] (setting [6]) was > 10000 nM each time.
With `CC[C@H](C)[C@H](NC(=O)[C@@H](NC(=O)[C@H](CCCCN)NC(=O)[C@H](CCCNC(=N)N)NC(=O)[C@@H]1CSSC[C@@H]2NC(=O)[C@H](C)NC(=O)[C@H](CCCNC(=N)N)NC(=O)[C@H](CCCCN)NC(=O)[C@H](CO)NC(=O)[C@H](CC(=O)O)NC(=O)[C@@H]3CSSC[C@H](NC(=O)[C@H](CCCNC(=N)N)NC(=O)[C@H](CC(C)C)NC(=O)CNC(=O)[C@H](CCC(=O)O)NC(=O)[C@H](CSSC[C@H](NC(=O)[C@@H](N)Cc4ccc(O)cc4)C(=O)N[C@@H](CCC(N)=O)C(=O)N[C@@H](CCCCN)C(=O)N[C@@H](Cc4c[nH]c5ccccc45)C(=O)N[C@@H](CCC(=O)O)C(=O)N[C@@H](Cc4c[nH]c5ccccc45)C(=O)N[C@@H]([C@@H](C)O)C(=O)N3)NC2=O)C(=O)N[C@@H](CCCCN)C(=O)N[C@@H](CC(C)C)C(=O)N[C@@H](Cc2c[nH]c3ccccc23)C(=O)N1)[C@@H](C)CC)C(N)=O` [M6 Glu mutant], the IC50 in test [1] (setting [4]), in test [2] (setting [5]) and in test [3] (setting [6]) was > 10000 nM each time.
Take `CC[C@H](C)[C@H](NC(=O)[C@@H](NC(=O)[C@H](CCCCN)NC(=O)[C@H](CCCNC(=N)N)NC(=O)[C@@H]1CSSC[C@@H]2NC(=O)[C@H](C)NC(=O)[C@H](CCCNC(=N)N)NC(=O)[C@H](CCCCN)NC(=O)[C@H](CO)NC(=O)[C@H](CC(=O)O)NC(=O)[C@@H]3CSSC[C@H](NC(=O)[C@H](CCCNC(=N)N)NC(=O)[C@H](CC(C)C)NC(=O)CNC(=O)[C@H](CCC(=O)O)NC(=O)[C@H](CSSC[C@H](NC(=O)[C@@H](N)Cc4ccc(O)cc4)C(=O)N[C@@H](C)C(=O)N[C@@H](CCCCN)C(=O)N[C@@H](Cc4c[nH]c5ccccc45)C(=O)N[C@@H](CCSC)C(=O)N[C@@H](Cc4c[nH]c5ccccc45)C(=O)N[C@@H]([C@@H](C)O)C(=O)N3)NC2=O)C(=O)N[C@@H](CCCCN)C(=O)N[C@@H](CC(C)C)C(=O)N[C@@H](Cc2c[nH]c3ccccc23)C(=O)N1)[C@@H](C)CC)C(N)=O` [Q3 Ala mutant]: the figures for the 50% inhibitory concentration (IC50) in test [1] (setting [7]), in test [2] (setting [8]) and in test [3] (setting [9]) were 378 nM, 1150 nM and > 10000 nM, respectively.
